The record followed here is US7879835B2 (Korea Research Institute of Chemical Technology, priority 2004, dated 2011).

The subject of data set [1] is osteoclast (TRAP-positive multinuclear cell) formation. The data set is described as follows: Inhibitory effect on osteoclast formation (TRAP staining). The settings on record: 8 days culture with M-CSF and RANKL, compared to control. The class given is cell-based, mice. The procedure, abridged:
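Non-adherent bone marrow cells from 7–9-week-old female mice, 2×10^5 per well, cultured 8 days with M-CSF (20 ng/ml), RANKL (30 ng/ml) and compound at 0.3, 1.0 or 3 μM. Formation scored by TRAP staining after fixation, 1 h at 37 °C, pH 5.0.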

The next data set relates to osteoclasts. Description: Inhibitory effect on resorption activity of osteoclast (resorption pit area on calcium phosphate-coated plate). The note with it: compared to control. The class given is cell-based, mice. Here is the method: After finishing culture, the plate was washed with distilled water, and 50 μl/well of 5% sodium hypochlorite was added to the plate. The plate was let alone for 5 min, washed again with distilled water to remove the adherent cells, and dried at room temperature. Then, the area of formed resorption pits was calculated by means of Image Pro Plus software (Media Cybernetics Ver. 3.0).

For the next data set, the system named is MG-63 cells. Description: Cytotoxicity test against osteoblast (MTT). The class given is cell-based, human. The procedure, abridged:
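MG-63 human osteosarcoma cells exposed to 0.1, 0.3, 1.0 and 3.0 μM compound in DMEM with 10% FBS. Osteoclast progenitors in the same text were run at 2, 4 and 8 μM, 48 h, α-MEM + 20 ng/ml M-CSF, 37 °C; MTT added 3 h before end, A550 as % of control.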

Data set [2] can be described thus: In vitro pharmacokinetics: metabolic stability in liver microsome. The class given is in vitro ADME. The settings on record: human liver microsome 1 mg/ml, 20 μM compound. Here is the method:
Metabolic stabilities of the compounds of the Examples were examined by employing microsome samples prepared from the human liver.
Each 20 μM of the compounds were reacted with 1 mg/ml of liver microsome and the half-lives and one-hour stabilities of the compounds were determined.

Data set [3] is described as follows: In vivo pharmacokinetics using female mice (serum concentration, HPLC). Here is the method: Female mice each weighing […] were divided into groups of 5 mice each. The mice were anesthetized with ether, catheterized in their femoral artery and vein, respectively, and administered with 0.5 mg/kg body weight of compounds 234 and 274, and 5 mg/kg body weight of compounds 388, 404 and 415, respectively, via intravenous injection. Alternatively, 15 mg/kg body weight of compound 274 and 10 mg/kg body weight of compound 234 were orally administered to the mice.
At 0, 5, 10, 15 and 30 minutes and 1, 2, 4, 6, 9 and 12 hours after the intravenous injection, or at 0, 10, 20 and 40 minutes and 1, 2, 4, 6, 9 and 12 hours after the oral administration, 0.3 ml blood samples were taken from the mice through femoral artery. The blood samples were kept on an ice bath for 30 minutes and centrifuged at 3,000 rpm for 10 minutes to obtain a supernatant (serum). The supernatant samples were stored at −20° C.
Standard solution: Compounds 234, 274, 388, 404 and 415 were respectively dissolved in methanol to a concentration of 1 mg/ml to obtain stock solutions. The stock solutions were diluted with methanol to obtain standard solutions having concentrations of 40, 20, 10, 2, 1, 0.5, 0.2, 0.05 and 0.02 μg/ml, respectively.
Standard calibration curve: A stand calibration curve was prepared by employing calibration concentrations of 0.002, 0.005, 0.02, 0.05, 0.1, 0.2, 1, 2 and 4 μg/ml.
10 μl each of the standard solutions prepared above was added to 100 μl of normal serum sample and diluted 10 times. 250 μl of acetonitrile was added to the resulting dilution and the mixture was centrifuged for 10 minutes to obtain a supernatant. 300 μl of the supernatant was dried by evaporation under a nitrogen atmosphere and reconstituted by adding 50 μl of methanol. 20 μl of the resulting solution was analyzed by HPLC to prepare a standard calibration curve. HPLC was performed with Shimadzu ODS2 column (4.6×250 mm, 5 μm by employing a mixture of methanol/water (90/10 (v/v)) as the mobile phase at a flow rate of 1.2 ml/min, and measuring the absorbance at 240 nm.
Extraction: 100 μl of the serum sample obtained in (4-2-1) was put into a 1 ml microtube and 10 μl of methanol was added thereto. 250 μl of acetonitrile was added to the microtube and the mixture was centrifuged for 10 minutes to obtain a supernatant. 300 μl of the supernatant was dried by evaporation under a nitrogen atmosphere and reconstituted by adding 50 μl of methanol. 20 μl of the resulting solution was analyzed by the HPLC method as above.
Average concentrations of the compounds in the serum samples were plotted in a semi-log scale against the time lapsed after the administration, and the pharmacokinetic parameters were determined as a non-compartment open model by employing WinNonlin® program (Pharsight Corporation).

The next data set relates to rats. Description: In vivo acute toxicity test (LD50). The settings on record: single dose, 2 weeks observation. Here is the method:
In order to determine the acute toxicities of the compounds prepared in Examples, 6-week old specific pathogen-free (SPF) rats each weighing […] were divided into groups of 10 rat each.
In case of subcutaneous administration, each of the compounds was dissolved in 5% PEG400 solution to a concentration of 20 mg/ml, the resulting solution was serially diluted with 5% PEG400 solution to concentrations of 5, 2.5, 1.25 and 0.625 mg/ml, and the dilutions were subcutaneously injected once to the rats at a dose of 10 ml/kg body weight.
In case of oral administration, each of the compounds was dissolved in soybean oil to a concentration of 180 mg/ml, the resulting solution was serially diluted with soybean oil to concentrations of 80, 20 and 5 mg/ml, and the dilutions were orally administered once to the rats at a dose of 20 ml/kg body weight. […]
During 2 weeks after the administration of the compounds, the death rate, clinical symptoms and weight changes of the rats were observed, and hematological and biochemical tests on blood samples were performed. Then, the rats were sacrificed and the internal organs were visually examined to check any abnormal signs in the organs of chest and abdomen.

The subject of data set [4] is osteoclast pregenitor cells. Description: Cytotoxicity against osteoclast pregenitor (MTT). The class given is cell-based, mice. The settings on record: 48 hrs, absorbance at 550 nm. Here is the method: In order examine the toxicities of the compounds of the Examples against osteoclast pregenitors, pregenitor cells were aliquotted onto a 96-well microplate at a density of 2×10^5 cells per well, treated with 2, 4 and 8 μM of the test compounds, respectively, and cultured for 48 hrs in α-MEM supplemented with 20 ng/ml of M-CSF (Peprotech, USA) using 37° C. incubator (5% CO2). At 3 hrs before the culture was finished, 50 μl of MTT (3-(4,5-dimethylthiazol-2-yl)-2,5-diphenyltetrazolium bromide) solution (50 μg/ml) was added to each well. Upon completion of the cell culture, the supernatant was removed, and the precipitated dye was reacted with 100 μl of isopropanol/0.04 N HCl at room temperature for 30 min to dissolve it. The absorbances of the wells were measured at 550 nm, and the relative absorbance of each well relative to that of the control (set as 100) is shown in Table 6.

SMILES strings stand for the structures.

In general, bioavailability refers to dose-corrected exposure relative to a reference, in per cent. Take `CO/C=C(/C(=O)OC)c1ccccc1COc1cccc(OCCN2CCOCC2)c1` [compound 234]: the “Osteoclast formation inhibitory effects (%)” value in data set [1] (0.3 μM) is on record as 25%; in data set [1] (1.0 μM), 100%; in data set [1] (3.0 μM), 100%. Besides, the “Reduction (%) of the resorption pit area of osteoclasts” value (from here on “Reduction (%)”) with osteoclasts (0.3 uM) is recorded as 95%; with osteoclasts (1 uM) it was 100%; in the data set with osteoclasts (3 uM) it was 100%. In addition, the “relative absorbance relative to that of the control (set as 100), MTT” value (shortened to “relative absorbance relative to that”) in the data set on MG-63 cells (0.33 uM) is on record as 98; in the data set on MG-63 cells (1 uM) it was 115; in the data set on MG-63 cells (3 uM), 97. Besides, the Half-life in data set [2] is over 3 h; in data set [3] (I.V.), 10.6 ± 4.8 h; in data set [3] (Oral) it was 12.8 ± 7.7 h. The One-hour stability in data set [2] turned out to be 83%. For the same compound, the “AUC (area under the curve of blood concentration versus time)” value worked out at 477.6 ± 96.4 µg·h/mL in data set [3] (I.V.) and 680.4 ± 426.2 µg·h/mL in data set [3] (Oral). Besides, the “CL (clearance)” value in data set [3] (I.V.) stood at 1.1 ± 0.2 mL/h; in data set [3] (Oral) it was 19.5 ± 10.6 mL/h. Besides, the “Vd (volume of distribution)” value in data set [3] (I.V.) amounted to 0.0152 ± 0.0052 L/kg; in data set [3] (Oral), 0.3544 ± 0.2456 L/kg. In data set [3] (oral versus I.V.), this compound yielded a bioavailability of 35.4%. Moreover, the LD50 in the data set on rats (PO) was 100-300 mg/kg body weight; in the data set with rats (SC), 7 mg/kg body weight.

With `CCCCCCOc1cccc(/C(C)=N/OCc2ccccc2/C(=C\OC)C(=O)OC)c1` [compound 15, (E)-methyl 2-(((({1E}-1-(3-(n-hexyloxy)phenyl)ethylidene)amino)oxy)methyl)phenyl-3-methoxyacrylate], the “Osteoclast formation inhibitory effects (%)” value in data set [1] (0.3 μM) was 92%; in data set [1] (1.0 μM), 100%; in data set [1] (3.0 μM), 100%. Besides, the results for the “Reduction (%)” value in the data set with osteoclasts (0.3 uM), in the data set with osteoclasts (1 uM) and in the data set on osteoclasts (3 uM) were 41%, 57% and 93%, respectively. The figures for the “relative absorbance relative to that” value with MG-63 cells (0.33 uM), in the data set on MG-63 cells (1 uM) and with MG-63 cells (3 uM) were 105, 85 and 76, respectively. Moreover, in data set [2], the Half-life was 0.615 h. For the same compound, the One-hour stability in data set [2] is reported as 33%. Besides, the LD50 is reported as over 2000 mg/kg body weight in the data set with rats (PO) and over 50 mg/kg body weight in the data set on rats (SC).

On to `C=CCOc1cccc(OCc2ccccc2/C(=C\OC)C(=O)OC)c1` [compound 211], for which the figures for the “Osteoclast formation inhibitory effects (%)” value in data set [1] (0.3 μM), in data set [1] (1.0 μM) and in data set [1] (3.0 μM) were 23%, 96% and 100%, respectively. In addition, the “Reduction (%)” value with osteoclasts (0.3 uM) is given as 96%; in the data set with osteoclasts (1 uM), 100%; with osteoclasts (3 uM), 100%. For the same compound, the “relative absorbance relative to that” value in data set [4] (2 uM) turned out to be 88; in data set [4] (4 uM) it was 103; in data set [4] (8 uM), 103; in the data set on MG-63 cells (0.11 uM), 103; in the data set on MG-63 cells (0.33 uM), 101; in the data set with MG-63 cells (1 uM), 105. In the data set on MG-63 cells (3 uM), the “relative absorbance relative to that” value turned out to be 106. In addition, the Half-life in data set [2] was determined as 1.77 h. Besides, in data set [2], the One-hour stability is given as 60%. The values for the LD50 in the data set on rats (PO) and in the data set with rats (SC) were 500 mg/kg body weight and 51 mg/kg body weight, respectively.

As for `C=CCOc1ccc(OCc2ccccc2/C(=C\OC)C(=O)OC)cc1` [compound 179], the entries for the “Osteoclast formation inhibitory effects (%)” value in data set [1] (0.3 μM), in data set [1] (1.0 μM) and in data set [1] (3.0 μM) were 84%, 100% and 100%, respectively. The “Reduction (%)” value with osteoclasts (0.3 uM) is listed as 86%; with osteoclasts (1 uM), 100%; in the data set with osteoclasts (3 uM) it was 100%. Besides, the “relative absorbance relative to that” value in the data set on MG-63 cells (0.11 uM) is 117; in the data set with MG-63 cells (0.33 uM), 111; in the data set with MG-63 cells (1 uM) it was 108; with MG-63 cells (3 uM), 106. The same compound gave a Half-life in data set [2] of over 3 h. The compound also gave an One-hour stability in data set [2] of 70%. Besides, the LD50 came to 500 mg/kg body weight in the data set with rats (PO) and 42 mg/kg body weight in the data set on rats (SC).
